Data on 1 compound can be found in US7723328B2, “Methods of facilitating cell survival using neurotrophin mimetics” (The University of North Carolina at Chapel Hill, priority 2005, dated 2010).

Series [1] deals with T1, p75^NTR-expressing 3T3 cells (Homo sapiens, UniProt P08138).
T1 construct: host or cells: NIH3T3 fibroblasts
T1 sequence (P08138 29-427): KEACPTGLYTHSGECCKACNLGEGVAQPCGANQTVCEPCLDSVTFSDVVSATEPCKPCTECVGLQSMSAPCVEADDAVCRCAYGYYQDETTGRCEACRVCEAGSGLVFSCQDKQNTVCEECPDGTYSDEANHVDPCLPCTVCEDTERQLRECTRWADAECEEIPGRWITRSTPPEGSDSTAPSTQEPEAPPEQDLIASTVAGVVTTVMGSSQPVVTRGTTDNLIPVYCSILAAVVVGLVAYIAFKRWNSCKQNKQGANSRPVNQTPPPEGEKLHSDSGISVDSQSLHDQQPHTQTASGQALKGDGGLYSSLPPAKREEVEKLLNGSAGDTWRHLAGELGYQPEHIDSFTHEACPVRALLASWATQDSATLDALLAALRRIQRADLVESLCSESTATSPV
Put plainly: p75NTR antibody (Ab 9651) competition on 3T3 cells, western blot. The following applies: 100 nM compound, 90 min, 4° C. The series is classed as binding. The protocol:
NIH3T3 fibroblasts expressing either null vector or p75^NTR (Huang, C. S. et al. (1999) J Biol Chem 274, 36707-36714) were obtained from Dr. William Mobley (Stanford University, Calif., United States of America). Cells were grown in monolayers, harvested in PBS with 2 mM EDTA, pelleted, and resuspended in ice-cold DMEM HEPES with 1 mg/ml BSA. 6-9×10^6 cells from one confluent 6-well plate were used for each experimental point.
For binding analysis, p75^NTR antibody (1:100) was allowed to bind in the presence or absence of 100 nM p75-binding compounds for 90 minutes at 4° C. with gentle rotation, followed by four washes in PBS. The final cell pellet was resuspended in lysis buffer.
Western blots were performed as described above. To detect the presence of p75^NTR antibody, blots were probed with horseradish peroxidase-linked goat anti-rabbit IgG obtained from Amersham/Pharmacia Biotech (Piscataway, N.J., United States of America). Signals were detected by the ECL chemiluminescence system obtained from Amersham Biosciences (Piscataway, […]., United States of America). To control for variation in protein loading, the blot was stripped and reprobed with β-actin monoclonal antibody obtained from Sigma (St. Louis, Mo., United States of America).
(In general: In western blotting, separated proteins are transferred to a membrane and probed.)

A further series deals with NFκB-p65. As to the kind of experiment: NFκB-p65 phosphorylation western blot in hippocampal cultures. In kind it is cell-based, mouse. Conditions: 20 nM. How it is done:
For assays of Trk, AKT, NFκB, and ERK activation, hippocampal neurons derived from E16-17 mice were cultured in poly-L-lysine coated six-well plates (Corning, Inc., Corning, N.Y., United States of America) in DMEM containing 10% FBS, followed by incubation in serum-free DMEM for 2 hours before addition of neurotrophins or compounds. At the indicated time points, neurons were harvested in lysis buffer consisting of: 20 mM Tris, pH 8.0, 137 mM NaCl, 1% Igepal CA-630, 10% glycerol, 1 mM PMSF, 10 μg/ml aprotinin, 1 μg/ml leupeptin, 500 μM orthovanadate (Zhou, J., Valletta, J. S., Grimes, M. L., Mobley, W. C. (1995) J Neurochem 65, 1146-1156).
Lysates were centrifuged, the supernatant collected, and protein concentrations determined using the BCA Protein Assay Reagent obtained from Pierce (Rockford, Ill., United States of America). Western blots were performed as described previously (Yang, T. et al. (2003) J Neurosci 23, 3353-3363). Western blot signals were detected using the ECL Chemiluminescence System obtained by Amersham (Piscataway, N.J., United States of America) (Yang, T. et al. (2003) J Neurosci 23, 3353-3363).

In another series the test system is mature oligodendrocytes. As to the kind of experiment: Oligodendrocyte cell death assay (MBP/TUNEL) with or without proNGF. Conditions: 24 h. In kind it is cell-based, rat. The protocol:
Cortical oligondendrocytes from rat pups were prepared as previously described (Yoon et al. (1998) J Neurosci 18, 3273-3281, Harrington, A. W., Kim, J. Y., Yoon, S. O. (2002) J Neurosci 22, 156-166). Cells were treated with recombinant, cleavage-resistant proNGF at 0.05 nM (2.8 ng/ml). Controls were treated with equivalent volumes of proNGF purification buffer containing 350 mM imidazole. 24 hours after treatment, the cells were fixed and processed for MBP and TUNEL staining as previously described (Beattie, M. S. et al. (2002) Neuron 36, 375-386). 200-250 cells were counted per well, for a minimum of 600 cells per experimental condition.

In a further series the test system is E17 hippocampal neurons. As to the kind of experiment: Aβ-induced death of hippocampal neurons. In kind it is cell-based. Conditions: Aβ1-42 10 μM; NGF at 100 pg/ml. The protocol:
Using previously well established protocols, Aβ was preincubated for 3 days in water to allow formation of oligomers. E17 hippocampal neurons were incubated for 5 days to allow for maturation prior to addition of Aβ with test compounds.

Structures are written as SMILES. “Also recorded” adds a separate entry of the source.

Take `CCC(C)C(N)C(=O)NCCN1CCOCC1` (centres unmarked) [Compound 4]: the “displacement of anti-p75NTR Ab 9651” value in series [1] is given as “significantly displaced”. Besides, the “increase in NFκB-p65 phosphorylation” value with NFκB-p65 is recorded as “approximately 1.5 fold”. Besides, the “inhibition of proNGF-induced oligodendrocyte death” value in the series with mature oligodendrocytes (2.8 ng/ml (0.05 nM) proNGF) is listed as “significantly inhibited; also recorded: blocked cell death”. In addition, the “promotion of oligodendrocyte cell death by compound alone” value in the series with mature oligodendrocytes (absence of proNGF) is reported as “did not promote cell death”. The “protection against Aβ1-42-induced death” value in the series on E17 hippocampal neurons was “entirely block”.
